According to US9216999B2, “Substituted pyrrolo[2,3-h][1,6]naphthyridines and compositions thereof as JAK inhibitors” (priority 2011, dated 2015):

Key:
Assay type in all cases: biochemical
Settings in all cases: ATP 100 μM
JAK2 = JAK2 (Homo sapiens (Human), UniProt O60674); test: Enzyme assay (Assay Example^a 1), JAK2
JAK3 = JAK3 (Homo sapiens (Human), UniProt P52333); test: Enzyme assay (Assay Example^a 1), JAK3
Tyk2 = Tyk2 (Homo sapiens (Human), UniProt P29597); test: Enzyme assay (Assay Example^a 1), Tyk2
JAK1 = JAK1 (Homo sapiens (Human), UniProt P23458); test: Enzyme assay (Assay Example^a 1), JAK1

Chain of Tyk2 (P29597 whole entry): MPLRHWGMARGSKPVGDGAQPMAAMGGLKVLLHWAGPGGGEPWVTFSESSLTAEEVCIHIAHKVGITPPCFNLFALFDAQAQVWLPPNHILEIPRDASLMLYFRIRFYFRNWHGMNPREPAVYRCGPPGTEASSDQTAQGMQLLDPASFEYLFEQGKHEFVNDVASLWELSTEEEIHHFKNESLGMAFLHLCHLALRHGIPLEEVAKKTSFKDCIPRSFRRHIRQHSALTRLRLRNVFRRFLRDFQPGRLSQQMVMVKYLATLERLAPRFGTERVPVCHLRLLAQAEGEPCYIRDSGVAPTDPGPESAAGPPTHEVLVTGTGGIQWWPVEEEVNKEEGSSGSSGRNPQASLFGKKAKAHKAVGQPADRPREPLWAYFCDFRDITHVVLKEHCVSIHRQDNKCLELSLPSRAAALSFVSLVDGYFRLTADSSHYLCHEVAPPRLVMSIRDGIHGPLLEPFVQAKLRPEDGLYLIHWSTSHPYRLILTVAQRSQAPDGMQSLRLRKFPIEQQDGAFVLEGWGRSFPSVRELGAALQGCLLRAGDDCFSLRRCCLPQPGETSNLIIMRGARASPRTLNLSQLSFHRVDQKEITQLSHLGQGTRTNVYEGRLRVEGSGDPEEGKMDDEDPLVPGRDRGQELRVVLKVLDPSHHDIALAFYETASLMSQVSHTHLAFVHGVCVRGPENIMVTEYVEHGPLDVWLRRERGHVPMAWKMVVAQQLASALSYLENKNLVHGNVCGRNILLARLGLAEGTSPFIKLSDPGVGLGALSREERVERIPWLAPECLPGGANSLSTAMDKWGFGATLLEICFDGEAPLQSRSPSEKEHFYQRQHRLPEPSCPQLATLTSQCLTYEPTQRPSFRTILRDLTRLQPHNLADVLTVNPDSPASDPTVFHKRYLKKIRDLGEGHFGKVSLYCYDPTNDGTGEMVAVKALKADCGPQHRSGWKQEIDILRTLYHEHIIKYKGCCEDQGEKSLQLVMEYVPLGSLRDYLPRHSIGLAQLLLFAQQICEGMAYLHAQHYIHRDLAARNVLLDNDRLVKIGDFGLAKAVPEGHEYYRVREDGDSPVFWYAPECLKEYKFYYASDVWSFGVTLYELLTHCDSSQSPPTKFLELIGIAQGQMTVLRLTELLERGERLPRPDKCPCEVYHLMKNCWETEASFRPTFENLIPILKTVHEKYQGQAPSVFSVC
Chain of JAK3 (P52333 whole entry): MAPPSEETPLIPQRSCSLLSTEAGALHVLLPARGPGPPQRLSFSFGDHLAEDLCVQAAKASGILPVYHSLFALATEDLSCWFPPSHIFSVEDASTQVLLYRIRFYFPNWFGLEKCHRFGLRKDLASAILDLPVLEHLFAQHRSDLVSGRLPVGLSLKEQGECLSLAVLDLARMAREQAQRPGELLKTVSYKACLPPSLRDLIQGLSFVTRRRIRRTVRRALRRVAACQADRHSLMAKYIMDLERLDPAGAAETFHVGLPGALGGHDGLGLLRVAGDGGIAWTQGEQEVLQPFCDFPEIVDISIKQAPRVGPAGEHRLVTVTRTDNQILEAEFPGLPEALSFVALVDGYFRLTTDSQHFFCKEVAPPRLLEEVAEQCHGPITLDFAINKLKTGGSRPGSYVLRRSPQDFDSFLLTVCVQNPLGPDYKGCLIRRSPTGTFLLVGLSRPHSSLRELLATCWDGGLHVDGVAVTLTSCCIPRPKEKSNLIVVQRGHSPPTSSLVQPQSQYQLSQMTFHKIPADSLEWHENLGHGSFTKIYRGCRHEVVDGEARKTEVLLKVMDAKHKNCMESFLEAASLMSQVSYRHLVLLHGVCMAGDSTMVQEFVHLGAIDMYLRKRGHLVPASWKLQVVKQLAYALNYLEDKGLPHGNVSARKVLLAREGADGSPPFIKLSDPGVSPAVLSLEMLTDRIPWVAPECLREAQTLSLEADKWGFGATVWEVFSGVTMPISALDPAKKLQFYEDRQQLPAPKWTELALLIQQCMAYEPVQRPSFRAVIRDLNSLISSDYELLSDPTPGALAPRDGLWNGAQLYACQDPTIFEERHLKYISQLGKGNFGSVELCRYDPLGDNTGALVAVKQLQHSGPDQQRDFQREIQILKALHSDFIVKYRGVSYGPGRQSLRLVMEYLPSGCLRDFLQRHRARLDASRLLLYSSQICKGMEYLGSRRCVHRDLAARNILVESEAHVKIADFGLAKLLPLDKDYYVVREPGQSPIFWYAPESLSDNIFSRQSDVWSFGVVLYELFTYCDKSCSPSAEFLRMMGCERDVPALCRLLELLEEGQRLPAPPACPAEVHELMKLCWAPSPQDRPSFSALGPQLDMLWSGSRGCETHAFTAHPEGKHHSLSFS

Row | SMILES | IC50 (JAK2; Table^a 154) [µM] | IC50 (JAK3; Table^a 154) [µM] | IC50 (Tyk2; Table^a 154) [µM] | IC50 (JAK1; Table^a 154) [µM] | IC50 (JAK2) [µM] | IC50 (JAK3) [µM] | IC50 (Tyk2) [µM] | IC50 (JAK1) [µM]
1 | N#Cc1ccc(CN[C@H]2CC[C@@H](c3nnn4cnc5[nH]ccc5c34)CC2)cc1 [137a] | 0.49 | > 1 | 0.31 | 0.032 | – | – | – | –
2 | Fc1ccc(NC[C@H]2CC[C@H](c3nnn4cnc5[nH]ccc5c34)CC2)cc1C(F)(F)F [compound 251, N-{[trans-4-(7H-pyrrolo[3,2-e][1,2,3]triazolo[1,5-c]pyrimidin-1-yl)cyclohexyl]methyl}-4-fluoro-3-(trifluoromethyl)aniline] | – | – | – | – | 0.2 | > 1 | > 1 | 0.031
3 | O=C(NCCc1ccc(F)cc1)[C@H]1CC[C@H](c2nnn3cnc4[nH]ccc4c23)CC1 [compound 208, trans-N-(4-fluorophenethyl)-4-(7H-pyrrolo[3,2-e][1,2,3]triazolo[1,5-c]pyrimidin-1-yl)cyclohexanecarboxamide] | 0.033 | 0.36 | 0.37 | 0.0028 | – | – | – | –
4 | C[C@@H](O)CNC[C@H]1CC[C@H](c2nnn3cnc4[nH]ccc4c23)CC1 [compound 185, (R)-1-({[trans-4-(7H-pyrrolo[3,2-e][1,2,3]triazolo[1,5-c]pyrimidin-1-yl)cyclohexyl]methyl}amino)propan-2-ol] | 0.051 | 0.32 | 0.13 | 0.0081 | – | – | – | –
5 | c1cc2c(ncn3nnc([C@H]4CC[C@H](CNC5CSC5)CC4)c23)[nH]1 [compound 344, N-{[trans-4-(7H-pyrrolo[3,2-e][1,2,3]triazolo[1,5-c]pyrimidin-1-yl)cyclohexyl]methyl}thietan-3-amine] | – | – | – | – | 0.068 | 0.52 | 0.39 | 0.012
6 | CC(=O)N[C@@H]1CCN(C[C@H]2CC[C@H](c3nnn4cnc5[nH]ccc5c34)CC2)C1 [compound 318, N-((R)-1-{[trans-4-(7H-pyrrolo[3,2-e][1,2,3]triazolo[1,5-c]pyrimidin-1-yl)cyclohexyl]methyl}pyrrolidin-3-yl)acetamide] | – | – | – | – | 0.057 | > 1 | 0.61 | 0.0048
7 | CN(C)C1CN(C[C@H]2CC[C@H](c3nnn4cnc5[nH]ccc5c34)CC2)C1 [compound 423, 1-{[trans-4-(7H-pyrrolo[3,2-e][1,2,3]triazolo[1,5-c]pyrimidin-1-yl)cyclohexyl]methyl}-N,N-dimethylazetidin-3-amine] | – | – | – | – | 0.72 | > 1 | > 1 | 0.077
8 | CN[C@H]1CC[C@H](c2nnn3cnc4[nH]ccc4c23)CC1 [398b, trans-N-methyl-4-(7H-pyrrolo[3,2-e][1,2,3]triazolo[1,5-c]pyrimidin-1-yl)cyclohexanamine] | – | – | – | – | 0.11 | > 1 | 0.75 | 0.029
9 | S=c1[nH]c(C2CCCCC2)c2c3cc[nH]c3ncn12 [compound 8] | – | – | – | – | 0.03 | 0.43 | 0.036 | 0.02
10 | CC(=O)N[C@H]1CCN(C[C@H]2CC[C@H](c3nnn4cnc5[nH]ccc5c34)CC2)C1 [compound 319, N-((S)-1-{[trans-4-(7H-pyrrolo[3,2-e][1,2,3]triazolo[1,5-c]pyrimidin-1-yl)cyclohexyl]methyl}pyrrolidin-3-yl)acetamide] | – | – | – | – | 0.23 | > 1 | > 1 | 0.027
11 | Cc1c(CN2CCC(c3nnn4cnc5[nH]ccc5c34)CC2)c(Cl)nn1CC(F)(F)F [compound 374, 1-{1-[(3-Chloro-5-methyl-1-(2,2,2-trifluoroethyl)-1H-pyrazol-4-yl)methyl]piperidin-4-yl}-7H-pyrrolo[3,2-e][1,2,3]triazolo[1,5-c]pyrimidine] | – | – | – | – | 0.18 | > 1 | > 1 | 0.038
12 | Fc1ccc(CN2CCC(c3nnn4cnc5[nH]ccc5c34)CC2)nc1 [compound 162, 1-{1-[(5-fluoropyridin-2-yl)methyl]piperidin-4-yl}-7H-pyrrolo[3,2-e][1,2,3]triazolo[1,5-c]pyrimidine] | 0.2 | 0.68 | > 1 | 0.032 | – | – | – | –
13 | c1cn(-c2ccc(CN3CCC(c4nnn5cnc6[nH]ccc6c45)CC3)cc2)cn1 [compound 221, 1-{1-[4-(1H-imidazol-1-yl)benzyl]piperidin-4-yl}-7H-pyrrolo[3,2-e][1,2,3]triazolo[1,5-c]pyrimidine] | – | – | – | – | 0.09 | > 1 | > 1 | 0.018
14 | N#CCCNC(=O)[C@H]1CC[C@H](c2nnn3cnc4[nH]ccc4c23)CC1 [compound 356, trans-N-(2-cyanoethyl)-4-(7H-pyrrolo[3,2-e][1,2,3]triazolo[1,5-c]pyrimidin-1-yl)cyclohexanecarboxamide] | – | – | – | – | 0.036 | > 1 | 0.16 | 0.0036
15 | Fc1cc(CN2CCC(c3nnn4cnc5[nH]ccc5c34)CC2)ccc1Cl [compound 159] | 0.011 | 0.08 | 0.3 | 0.0016 | – | – | – | –
16 | c1ccc(CCCN[C@H]2CC[C@@H](c3nnn4cnc5[nH]ccc5c34)CC2)cc1 [136a] | > 1 | > 1 | > 1 | 0.14 | – | – | – | –

Row | SMILES | IC50 (JAK2; Table^a 154) [µM] | IC50 (JAK3; Table^a 154) [µM] | IC50 (Tyk2; Table^a 154) [µM] | IC50 (JAK1; Table^a 154) [µM] | IC50 (JAK2) [µM] | IC50 (JAK3) [µM] | IC50 (Tyk2) [µM] | IC50 (JAK1) [µM]
17 | Clc1ccc(CNC[C@H]2CC[C@H](c3nnn4cnc5[nH]ccc5c34)CC2)cc1 [compound 177, 1-[trans-4-(7H-pyrrolo[3,2-e][1,2,3]triazolo[1,5-c]pyrimidin-1-yl)cyclohexyl]-N-(4-chlorobenzyl)methanamine] | 0.031 | 0.2 | 0.0028 | 0.0029 | – | – | – | –
18 | CC1CC1NC[C@H]1CC[C@H](c2nnn3cnc4[nH]ccc4c23)CC1 (stereo partly drawn) [compound 291, N-{[trans-4-(7H-pyrrolo[3,2-e][1,2,3]triazolo[1,5-c]pyrimidin-1-yl)cyclohexyl]methyl}-2-methylcyclopropanamine] | – | – | – | – | 0.1 | 0.67 | 0.14 | 0.0053
19 | O=C(C[C@H]1CC[C@@H](c2nnn3cnc4[nH]ccc4c23)CC1)NCC(F)(F)F [442a, 2-[cis-4-(7H-Pyrrolo[3,2-e][1,2,3]triazolo[1,5-c]pyrimidin-1-yl)cyclohexyl]-N-2,2,2-trifluoroethylacetamide] | – | – | – | – | 0.061 | 0.52 | 0.79 | 0.027
20 | CC(C)(O)c1cn(C[C@H]2CC[C@H](c3nnn4cnc5[nH]ccc5c34)CC2)nn1 [compound 370, 2-(1-{[trans-4-(7H-Pyrrolo[3,2-e][1,2,3]triazolo[1,5-c]pyrimidin-1-yl)cyclohexyl]methyl}-1H-1,2,3-triazol-4-yl)propan-2-ol] | – | – | – | – | 0.097 | 0.59 | > 1 | 0.0074
21 | COc1ccc(CNC[C@H]2CC[C@H](c3nnn4cnc5[nH]ccc5c34)CC2)cc1 [compound 270, 1-[trans-4-(7H-pyrrolo[3,2-e][1,2,3]triazolo[1,5-c]pyrimidin-1-yl)cyclohexyl]-N-(4-methoxybenzyl)methanamine] | – | – | – | – | 0.1 | 0.75 | 0.0048 | 0.012
22 | N#CCN1CCC(c2nnn3cnc4[nH]ccc4c23)CC1 [compound 246, 2-[4-(7H-pyrrolo[3,2-e][1,2,3]triazolo[1,5-c]pyrimidin-1-yl)piperidin-1-yl]acetonitrile] | – | – | – | – | 0.019 | 0.28 | 0.14 | 0.0053
23 | Fc1ccc(CN2CCC(c3nnn4cnc5[nH]ccc5c34)CC2)c(F)c1 [compound 164, 1-[1-(2,4-difluorobenzyl)piperidin-4-yl]-7H-pyrrolo[3,2-e][1,2,3]triazolo[1,5-c]pyrimidine] | 0.03 | 0.23 | 0.29 | 0.0058 | – | – | – | –
24 | O=S(=O)(C[C@H]1CC[C@H](c2nnn3cnc4[nH]ccc4c23)CC1)C1CC1 [compound 366, 1-{trans-4-[(cyclopropylsulfonyl)methyl]cyclohexyl}-7H-pyrrolo[3,2-e][1,2,3]triazolo[1,5-c]pyrimidine] | – | – | – | – | 0.028 | 0.28 | 0.26 | 0.011
25 | N#Cc1ccc(CCNC[C@H]2CC[C@H](c3nnn4cnc5[nH]ccc5c34)CC2)cc1 [compound 282, 4-[2-({[trans-4-(7H-pyrrolo[3,2-e][1,2,3]triazolo[1,5-c]pyrimidin-1-yl)cyclohexyl]methyl}amino)ethyl]benzonitrile] | – | – | – | – | 0.07 | 0.39 | 0.08 | 0.0052
26 | N#Cc1ccc(CN[C@H]2CC[C@H](c3nnn4cnc5[nH]ccc5c34)CC2)cc1 [137b] | 0.039 | 0.38 | 0.088 | 0.0041 | – | – | – | –
27 | O/N=C/[C@H]1CC[C@H](c2nnn3cnc4[nH]ccc4c23)CC1 [compound 429, 4-(7H-Pyrrolo[3,2-e][1,2,3]triazolo[1,5-c]pyrimidin-1-yl)cyclohexanecarbaldehyde oxime] | – | – | – | – | 0.035 | 0.79 | 0.52 | 0.017
28 | Fc1cc(C(F)(F)F)cc(F)c1CN1CCC(c2nnn3cnc4[nH]ccc4c23)CC1 [compound 224, 1-{1-[2,6-difluoro-4-(trifluoromethyl)benzyl]piperidin-4-yl}-7H-pyrrolo[3,2-e][1,2,3]triazolo[1,5-c]pyrimidine] | – | – | – | – | 0.012 | 0.43 | 0.95 | 0.002
29 | c1cc2c(ncn3nnc([C@H]4CC[C@H](NCC5CC5)CC4)c23)[nH]1 [396b, trans-N-(cyclopropylmethyl)-4-(7H-pyrrolo[3,2-e][1,2,3]triazolo[1,5-c]pyrimidin-1-yl)cyclohexanamine] | – | – | – | – | 0.19 | > 1 | 0.71 | 0.022
30 | FC(F)(F)C1CCC(N2CCC(c3nnn4cnc5[nH]ccc5c34)CC2)CC1 (single isomer, unassigned) [56a] | > 1 | > 1 | > 1 | 0.5 | – | – | – | –
31 | Clc1cc(CN2CCC(c3nnn4cnc5[nH]ccc5c34)CC2)ccn1 [compound 160] | 0.021 | 0.35 | 0.26 | 0.0053 | – | – | – | –
